Source: patent publication US11825838B2, “Tricyclic carboxamides for controlling arthropods” (Bayer CropScience Aktiengesellschaft, priority 2017, dated 2023)

Experiments:
Assay type in all cases: in vivo
Phaedon cochleariae = Phaedon cochleariae spray test (PHAECO)
Protocol: Phaedon cochleariae—Spray Test
(§1) To produce a suitable active ingredient formulation, 1 part by weight of active ingredient is dissolved with the specified parts by weight of solvent and made up to the desired concentration with water containing an emulsifier concentration of 1000 ppm. To produce further test concentrations, the formulation is diluted with emulsifier-containing water.
After 7 days, the efficacy in % is determined. 100% means that all the beetle larvae have been killed; 0% means that no beetle larvae have been killed.
Phaedon cochleariae—Spray Test (PHAECO)
as §1, with “compound” for “ingredient”
Discs of Chinese cabbage leaves (Brassica pekinensis) are sprayed with an active compound formulation of the desired concentration and, after drying, populated with larvae of the mustard beetle (Phaedon cochleariae).
After the desired time, the efficacy in % is determined. 100% means that all the beetle larvae have been killed; 0% means that no beetle larvae have been killed.

Spodoptera frugiperda = Spodoptera frugiperda spray test (SPODFR)
Protocol: Spodoptera frugiperda—Spray Test
as §1
Leaf discs of maize (Zea mays) are sprayed with an active ingredient formulation of the desired concentration and, after drying, populated with caterpillars of the armyworm (Spodoptera frugiperda).
After 7 days, the efficacy in % is determined. 100% means that all the caterpillars have been killed; 0% means that no caterpillar has been killed.
Spodoptera frugiperda—Spray Test (SPODFR)
as §1, with “compound” for “ingredient”
Leaf discs of maize (Zea mays) are sprayed with an active compound formulation of the desired concentration and, after drying, populated with caterpillars of the armyworm (Spodoptera frugiperda).
After the desired time, the efficacy in % is determined. 100% means that all the caterpillars have been killed; 0% means that no caterpillar has been killed.

Musca domestica = Musca domestica test; conditions: application rate 100 ppm, adult houseflies, after 2 days
Protocol: (§2) Solvent: dimethyl sulfoxide
(§3) To produce a suitable active ingredient formulation, 10 mg of active ingredient are mixed with 0.5 ml of dimethyl sulfoxide, and the concentrate is diluted with water to the desired concentration.
Vessels containing a sponge treated with sugar solution and the active ingredient formulation of the desired concentration are populated with 10 adult houseflies (Musca domestica).
After 2 days, the rate of extermination in % is determined. 100% means that all of the flies have been killed; 0% means that none of the flies have been killed.

Ctenocephalides felis = Ctenocephalides felis in vitro contact test with adult cat fleas; conditions: application rate 5 μg/cm^2 (=500 g/ha), after 48 h, adult cat fleas dead or moribund
Protocol: Ctenocephalides felis—In Vitro Contact Tests with Adult Cat Fleas
(§4) For the coating of the test tubes, 9 mg of active ingredient are first dissolved in 1 ml of acetone p.a. and then diluted to the desired concentration with acetone p.a. 250 μl of the solution are distributed homogeneously on the inner walls and the base of a 25 ml glass tube by turning and rocking on an orbital shaker (rocking rotation at 30 rpm for 2 h). With 900 ppm of active ingredient solution and internal surface area 44.7 cm^2, given homogeneous distribution, an area-based dose of 5 μg/cm^2 is achieved.
After the solvent has evaporated off, the tubes are populated with 5-10 adult cat fleas (Ctenocephalides felis), sealed with a perforated plastic lid and incubated in a horizontal position at room temperature and ambient humidity. After 48 h, efficacy is determined. To this end, the tubes are stood upright and the fleas are knocked to the base of the tube. Fleas which remain motionless at the base or move in an uncoordinated manner are considered to be dead or moribund.
100% efficacy means that all the fleas were dead or moribund. 0% efficacy means that no fleas were harmed.

Tetranychus urticae = Tetranychus urticae spray test, OP-resistant (TETRUR); conditions: for efficacy: spray, after 6 days
Protocol: Tetranychus urticae—Spray Test, OP-Resistant
as §1
Discs of bean leaves (Phaseolus vulgaris) infested with all stages of the greenhouse red spider mite (Tetranychus urticae) are sprayed with an active compound preparation of the desired concentration.
After 6 days, the efficacy in % is determined. 100% means that all the spider mites have been killed; 0% means that no spider mites have been killed.
Tetranychus urticae—Spray Test; OP-Resistant (TETRUR)
as §1, with “compound” for “ingredient”
Discs of bean leaves (Phaseolus vulgaris) infested with all stages of the greenhouse red spider mite (Tetranychus urticae) are sprayed with an active compound formulation of the desired concentration.
After the desired time, the efficacy in % is determined. 100% means that all the spider mites have been killed; 0% means that no spider mites have been killed.

Lucilia cuprina = Lucilia cuprina test; conditions: application rate 100 ppm, L1 larvae, after 2 days
Protocol: as §2, §3
About 20 L1 larvae of the Australian sheep blowfly (Lucilia cuprina) are transferred into a test vessel containing minced horsemeat and the active compound preparation of the desired concentration.
After 2 days, the rate of extermination in % is determined. 100% means that all the larvae have been killed; 0% means that no larvae have been killed.

Rhipicephalus sanguineus = Rhipicephalus sanguineus in vitro contact test with adult brown dog ticks; conditions: application rate 5 μg/cm^2 (=500 g/ha), after 48 h, adult dog ticks dead or moribund
Protocol: Rhipicephalus sanguineus—In Vitro Contact Tests with Adult Brown Dog Ticks
as §4
After the solvent has evaporated off, the tubes are populated with 5-10 adult dog ticks (Rhipicephalus sanguineus), sealed with a perforated plastic lid and incubated in a horizontal position in the dark at room temperature and ambient humidity. After 48 h, efficacy is determined. To this end, the ticks are knocked to the base of the tube and incubated on a hotplate at 45-50° C. for not more than 5 min. Ticks which remain motionless on the base or move in such an uncoordinated manner that they are unable to deliberately avoid the heat by climbing upwards are considered to be dead or moribund.
An efficacy of 100% means that all the ticks were dead or moribund. 0% efficacy means that none of the ticks were harmed.

Myzus persicae = Myzus persicae spray test (MYZUPE); conditions: for efficacy: application rate 100 g/ha, spray, after 5 days
Protocol: Myzus persicae—Spray Test
as §1
Discs of Chinese cabbage leaves (Brassica pekinensis) infested by all stages of the green peach aphid (Myzus persicae) are sprayed with an active compound preparation of the desired concentration.
After 5 days, the efficacy in % is determined. 100% means that all the aphids have been killed; 0% means that no aphids have been killed.
Myzus Persicae—Spray Test (MYZUPE)
as §1, with “compound” for “ingredient”
Discs of Chinese cabbage leaves (Brassica pekinensis) infested with all stages of the green peach aphid (Myzus persicae) are sprayed with an active compound formulation of the desired concentration.
After the desired time, the efficacy in % is determined. 100% means that all the aphids have been killed; 0% means that no aphids have been killed.

[1] = application rate 100 g/ha, spray, after 7 days

| Compound | Emax at 100 g/ha (Phaedon cochleariae; Phaedon cochleariae, 168 h, PHAECO, 100 g ai/ha, 7 dat, read-out: % efficacy dat) [%] | pest or weed control at 100 g/ha (Phaedon cochleariae; Phaedon cochleariae, 168 h, application rate 100 g/ha, spray, after 7 days, read-out: efficacy) [%] | Emax at 100 g/ha (Spodoptera frugiperda; Spodoptera frugiperda, 168 h, SPODFR, 100 g ai/ha, 7 dat, read-out: % efficacy dat) [%] | pest or weed control at 100 g/ha (Spodoptera frugiperda; Spodoptera frugiperda, 168 h, application rate 100 g/ha, spray, after 7 days, read-out: efficacy) [%] | efficacy (rate of extermination) (Musca domestica) [%] | efficacy (Ctenocephalides felis) [%] | Emax at 100 g/ha (Tetranychus urticae; Tetranychus urticae, 144 h, TETRUR, 100 g ai/ha, 6 dat, read-out: % efficacy dat) [%] | efficacy (Tetranychus urticae; application rate 20 g/ha) [%] | efficacy (rate of extermination) (Lucilia cuprina) [%] | efficacy (Rhipicephalus sanguineus) [%] | Emax at 100 g/ha (Myzus persicae; Myzus persicae, 120 h, MYZUPE, 100 g ai/ha, 5 dat, read-out: % efficacy dat) [%] | efficacy (Myzus persicae) [%] | efficacy (Phaedon cochleariae; [1]) [%] | efficacy (Spodoptera frugiperda; [1]) [%] | efficacy (Tetranychus urticae; application rate 100 g/ha) [%] |
| --- | --- | --- | --- | --- | --- | --- | --- | --- | --- | --- | --- | --- | --- | --- | --- |
| O=C(NC1CC1)c1cc(-c2cnn(-c3c(Cl)cc(C(F)(C(F)(F)F)C(F)(F)F)cc3Cl)c2)sc1Br [I-T1-1] | 100 | 100 | 100 | 100 | 100 | 100 | 70 | 100 | 100 | 100 | 100 | 100 |  |  |  |
| Cc1sc(-c2cnn(-c3c(Cl)cc(C(F)(C(F)(F)F)C(F)(F)F)cc3Cl)c2)cc1C(=O)NC1CC1 [I-T1-11] |  |  |  |  | 100 | 100 |  | 100 | 100 | 100 |  | 90 | 100 | 100 | 100 |
